{"source": "patent US6355799B1", "about": "“Substituted benzene compounds, process for their preparation, and herbicidal and defoliant compositions containing them” (ISK Americas Incorporated, priority 1997, dated 2002)", "type_in_all_cases": "in vivo", "key": {"[1]": {"system": "redroot pigweed (Amaranthus retroflexus, AMARE)", "experiment": "Pre-emerge test, greenhouse herbicide activity screening", "settings": "pre-emerge, 14 days after application, scale 0-100", "summary_of_the_method": "(§1)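 Visual ratings on a 0-100 scale (0 no damage, 100 all plants dead) were taken at 14 days after treatment. Rates of 15-1000 g ai/ha in acetone, 187 l/ha, were sprayed onto soil one day after planting (pre-emerge) or onto 2-3 leaf plants with 0.25% v/v surfactant (post-emerge).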"}, "[2]": {"system": "barnyardgrass (Echinochloa crus-galli, ECHCG)", "experiment": "Pre-emerge test, greenhouse herbicide activity screening", "settings": "pre-emerge, 14 days after application, scale 0-100", "summary_of_the_method": "as §1"}, "[3]": {"system": "common ragweed (Ambrosia artemisizfolia L., AMBEL)", "experiment": "Pre-emerge test, greenhouse herbicide activity screening", "settings": "pre-emerge, 14 days after application, scale 0-100", "summary_of_the_method": "as §1"}, "[4]": {"system": "green foxtail (Setaria viridis, SETVI)", "experiment": "Pre-emerge test, greenhouse herbicide activity screening", "settings": "pre-emerge, 14 days after application, scale 0-100", "summary_of_the_method": "as §1"}, "[5]": {"system": "ivyleaf morningglory (Ipomoea hederacea, IPOHE)", "experiment": "Pre-emerge test, greenhouse herbicide activity screening", "settings": "pre-emerge, 14 days after application, scale 0-100", "summary_of_the_method": "as §1"}, "[6]": {"system": "johnsongrass (Sorghum halepense, SORHA)", "experiment": "Pre-emerge test, greenhouse herbicide activity screening", "settings": "pre-emerge, 14 days after application, scale 0-100", "summary_of_the_method": "as §1"}, "[7]": {"system": "lambsquarters (Chenopodium album, CHEAL)", "experiment": "Pre-emerge test, greenhouse herbicide activity screening", "settings": "pre-emerge, 14 days after application, scale 0-100", "summary_of_the_method": "as §1"}, "[8]": {"system": "large crabgrass (Digitaria sanguinalis, DIGSA)", "experiment": "Pre-emerge test, greenhouse herbicide activity screening", "settings": "pre-emerge, 14 days after application, scale 0-100", "summary_of_the_method": "as §1"}, "[9]": {"system": "sicklepod (Cassia obtusifolia, CASOB)", "experiment": "Pre-emerge test, greenhouse herbicide activity screening", "settings": "pre-emerge, 14 days after application, scale 0-100", "summary_of_the_method": "as §1"}, "[10]": {"system": "velvetleaf (Abutilon theophrasti, ABUTH)", "experiment": "Pre-emerge test, greenhouse herbicide activity screening", "settings": "pre-emerge, 14 days after application, scale 0-100", "summary_of_the_method": "as §1"}, "[11]": {"system": "field corn (Zea mays L., var. Dekalb 535, CORN)", "experiment": "Pre-emerge test, crop safety", "settings": "pre-emerge, 14 days after application, scale 0-100", "summary_of_the_method": "as §1"}, "[12]": {"system": "upland rice (Oryza sp., var. Tebonnet, RICE)", "experiment": "Pre-emerge test, crop safety", "settings": "pre-emerge, 14 days after application, scale 0-100", "summary_of_the_method": "as §1"}, "[13]": {"system": "barnyardgrass (Echinochloa crus-galli, ECHCG)", "experiment": "Post-emerge test, greenhouse herbicide activity screening", "settings": "post-emerge, 14 days after application, rating scale 0-100", "summary_of_the_method": "(§2)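 Compounds in acetone were track-sprayed at 15-1000 g ai/ha (187 l/ha) on sandy loam pots: pre-emerge one day after seeding, post-emerge at 2-3 leaf stage with 0.25% v/v non-ionic surfactant. Phytotoxicity was rated 14 days later on a 0 (no damage) to 100 (complete death) scale.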"}, "[14]": {"system": "green foxtail (Setaria viridis, SETVI)", "experiment": "Post-emerge test, greenhouse herbicide activity screening", "settings": "post-emerge, 14 days after application, rating scale 0-100", "summary_of_the_method": "as §2"}, "[15]": {"system": "ivyleaf morningglory (Ipomoea hederacea, IPOHE)", "experiment": "Post-emerge test, greenhouse herbicide activity screening", "settings": "post-emerge, 14 days after application, rating scale 0-100", "summary_of_the_method": "as §2"}, "[16]": {"system": "johnsongrass (Sorghum halepense, SORHA)", "experiment": "Post-emerge test, greenhouse herbicide activity screening", "settings": "post-emerge, 14 days after application, rating scale 0-100", "summary_of_the_method": "as §2"}, "[17]": {"system": "lambsquarters (Chenopodium album, CHEAL)", "experiment": "Post-emerge test, greenhouse herbicide activity screening", "settings": "post-emerge, 14 days after application, rating scale 0-100", "summary_of_the_method": "as §2"}, "[18]": {"system": "large crabgrass (Digitaria sanguinalis, DIGSA)", "experiment": "Post-emerge test, greenhouse herbicide activity screening", "settings": "post-emerge, 14 days after application, rating scale 0-100", "summary_of_the_method": "as §2"}, "[19]": {"system": "redroot pigweed (Amaranthus retroflexus, AMARE)", "experiment": "Post-emerge test, greenhouse herbicide activity screening", "settings": "post-emerge, 14 days after application, rating scale 0-100", "summary_of_the_method": "as §2"}, "[20]": {"system": "sicklepod (Cassia obtusifolia, CASOB)", "experiment": "Post-emerge test, greenhouse herbicide activity screening", "settings": "post-emerge, 14 days after application, rating scale 0-100", "summary_of_the_method": "as §2"}, "[21]": {"system": "velvetleaf (Abutilon theophrasti, ABUTH)", "experiment": "Post-emerge test, greenhouse herbicide activity screening", "settings": "post-emerge, 14 days after application, rating scale 0-100", "summary_of_the_method": "as §2"}, "[22]": {"system": "field corn (Zea mays L., var. Dekalb 535, CORN)", "experiment": "Post-emerge test, crop safety", "settings": "post-emerge, 14 days after application, rating scale 0-100", "summary_of_the_method": "as §1"}, "[23]": {"system": "upland rice (Oryza sp., var. Tebonnet, RICE)", "experiment": "Post-emerge test, crop safety", "settings": "post-emerge, 14 days after application, rating scale 0-100", "summary_of_the_method": "as §1"}}, "data": [{"compound": "Cn1c(C(F)(F)F)cc(=O)n(-c2c(F)cc(OC(F)F)cc2NC(=O)c2ccc3ccccc3c2)c1=O", "note": "[2-148]", "values": [{"measurement": "phytotoxicity rating AMARE", "setting": "[1]; 63 g ai/ha", "value": 100}, {"measurement": "phytotoxicity rating AMARE", "setting": "[1]; 250 g ai/ha", "value": 100}, {"measurement": "phytotoxicity rating ECHCG", "setting": "[2]; 63 g ai/ha", "value": 90}, {"measurement": "phytotoxicity rating ECHCG", "setting": "[2]; 250 g ai/ha", "value": 100}, {"measurement": "phytotoxicity rating AMBEL", "setting": "[3]; 63 g ai/ha", "value": 0}, {"measurement": "phytotoxicity rating AMBEL", "setting": "[3]; 250 g ai/ha", "value": 100}, {"measurement": "phytotoxicity rating SETVI", "setting": "[4]; 63 g ai/ha", "value": 80}, {"measurement": "phytotoxicity rating SETVI", "setting": "[4]; 250 g ai/ha", "value": 95}, {"measurement": "phytotoxicity rating IPOHE", "setting": "[5]; 63 g ai/ha", "value": 50}, {"measurement": "phytotoxicity rating IPOHE", "setting": "[5]; 250 g ai/ha", "value": 99}, {"measurement": "phytotoxicity rating SORHA", "setting": "[6]; 63 g ai/ha", "value": 0}, {"measurement": "phytotoxicity rating SORHA", "setting": "[6]; 250 g ai/ha", "value": 30}, {"measurement": "phytotoxicity rating CHEAL", "setting": "[7]; 63 g ai/ha", "value": 100}, {"measurement": "phytotoxicity rating CHEAL", "setting": "[7]; 250 g ai/ha", "value": 100}, {"measurement": "phytotoxicity rating DIGSA", "setting": "[8]; 63 g ai/ha", "value": 95}, {"measurement": "phytotoxicity rating DIGSA", "setting": "[8]; 250 g ai/ha", "value": 100}, {"measurement": "phytotoxicity rating CASOB", "setting": "[9]; 63 g ai/ha", "value": 50}, {"measurement": "phytotoxicity rating CASOB", "setting": "[9]; 250 g ai/ha", "value": 95}, {"measurement": "phytotoxicity rating ABUTH", "setting": "[10]; 63 g ai/ha", "value": 100}, {"measurement": "phytotoxicity rating ABUTH", "setting": "[10]; 250 g ai/ha", "value": 100}, {"measurement": "phytotoxicity rating CORN (crop damage)", "setting": "[11]; 63 g ai/ha", "value": 0}, {"measurement": "phytotoxicity rating CORN (crop damage)", "setting": "[11]; 250 g ai/ha", "value": 0}, {"measurement": "phytotoxicity rating RICE (crop damage)", "setting": "[12]; 63 g ai/ha", "value": 0}, {"measurement": "phytotoxicity rating RICE (crop damage)", "setting": "[12]; 250 g ai/ha", "value": 60}, {"measurement": "ECHCG phytotoxicity rating", "setting": "[13]; 63 g ai/ha", "value": 50}, {"measurement": "ECHCG phytotoxicity rating", "setting": "[13]; 250 g ai/ha", "value": 20}, {"measurement": "SETVI phytotoxicity rating", "setting": "[14]; 63 g ai/ha", "value": 50}, {"measurement": "SETVI phytotoxicity rating", "setting": "[14]; 250 g ai/ha", "value": 40}, {"measurement": "IPOHE phytotoxicity rating", "setting": "[15]; 63 g ai/ha", "value": 80}, {"measurement": "IPOHE phytotoxicity rating", "setting": "[15]; 250 g ai/ha", "value": 90}, {"measurement": "SORHA phytotoxicity rating", "setting": "[16]; 63 g ai/ha", "value": 0}, {"measurement": "SORHA phytotoxicity rating", "setting": "[16]; 250 g ai/ha", "value": 10}, {"measurement": "CHEAL phytotoxicity rating", "setting": "[17]; 63 g ai/ha", "value": 100}, {"measurement": "CHEAL phytotoxicity rating", "setting": "[17]; 250 g ai/ha", "value": 100}, {"measurement": "DIGSA phytotoxicity rating", "setting": "[18]; 63 g ai/ha", "value": 40}, {"measurement": "DIGSA phytotoxicity rating", "setting": "[18]; 250 g ai/ha", "value": 40}, {"measurement": "AMARE phytotoxicity rating", "setting": "[19]; 63 g ai/ha", "value": 100}, {"measurement": "AMARE phytotoxicity rating", "setting": "[19]; 250 g ai/ha", "value": 90}, {"measurement": "CASOB phytotoxicity rating", "setting": "[20]; 63 g ai/ha", "value": 95}, {"measurement": "CASOB phytotoxicity rating", "setting": "[20]; 250 g ai/ha", "value": 100}, {"measurement": "ABUTH phytotoxicity rating", "setting": "[21]; 63 g ai/ha", "value": 100}, {"measurement": "ABUTH phytotoxicity rating", "setting": "[21]; 250 g ai/ha", "value": 100}, {"measurement": "CORN phytotoxicity rating (crop damage)", "setting": "[22]; 63 g ai/ha", "value": 25}, {"measurement": "CORN phytotoxicity rating (crop damage)", "setting": "[22]; 250 g ai/ha", "value": 30}, {"measurement": "RICE phytotoxicity rating (crop damage)", "setting": "[23]; 63 g ai/ha", "value": 0}, {"measurement": "RICE phytotoxicity rating (crop damage)", "setting": "[23]; 250 g ai/ha", "value": 10}]}]}
